Data set [1] has as its system HaCaT cells. The settings on record: 20 nM, 48 h.
Description: (§2) HaCaT cells (10^5 cells/mL) were seeded in 96-well plates and co-treated with testosterone (5 μg/mL) or DHT (5 μg/mL) and test samples with no cytotoxicity for 48 h [2, 25, 26]. Cell proliferative activity was detected by an MTT assay.
Another data set has as its system RAW 264.7 cells. Briefly: Survival rate of RAW 264.7 cells by MTT assay. Type of data set: cell-based. The note with it: LPS-induced RAW 264.7 cells, 24 h, 20 μM. How it is done: (§1) Anti-inflammatory effects were analyzed in RAW 264.7 cells, which were cultured in DMEM with 10% FBS, 1% L-glutamine, and 1% penicillin-streptomycin, and maintained at 37 °C in a 5% CO2 atmosphere. RAW 264.7 cells (4.0 × 10^5 cells/mL) were seeded in 96-well plates and co-treated with LPS (500 ng/mL) and test samples. After 24 h, NO production was determined by Griess reagent, and the absorption was detected at 530 nm. The percentage inhibition of NO production was presented as the anti-inflammatory activity. PGE2 concentrations in cell culture media were determined with a PGE2 enzyme-linked immunosorbent assay (ELISA) kit (Enzo Life Sciences, Farmingdale, NY, USA). The survival rate of RAW 264.7 cells was detected using an MTT assay.
For orientation: Tetrazolium assays rely on reduction of a dye to a coloured formazan, in cell work by metabolically active cells.

For data set [2], the system named is iNOS. More on the design: method as in PMID 23774887. The settings on record: LPS-stimulated RAW264.7 macrophage cells; cited from earlier work.
The next data set deals with A375 melanoma cells. More on the design: method as in PMID 23880933. The note with it: cited from earlier work.
Data set [3] deals with LPS-induced RAW 264.7 cells (NO production). Briefly: NO production (Griess) in LPS-induced RAW 264.7 cells. Format: cell-based. Here is the method: as §1
(Nitrite, measured by Griess reagent, commonly stands in for NO production.)

Data set [4] deals with iNOS. More on the design: method as in PMID 23675440. The settings on record: LPS-stimulated murine macrophages; cited from earlier work.
Data set [5] has as its system COX-2. On the set-up: method as in PMID 23675440. The settings on record: LPS-stimulated murine macrophages; cited from earlier work.
Data set [6] relates to COX-2. On the set-up: method as in PMID 23774887. The settings on record: LPS-stimulated RAW264.7 macrophage cells; cited from earlier work.
The test system of data set [7] is HaCaT cells. Briefly: cells. The settings on record: Homo sapiens, read-out: HaCaT cell viability.
Description: as §2

As for `C[C@]12CC[C@H]3[C@@H](CCC4=CC(=O)CC[C@@]43C)[C@@H]1CC[C@@H]2O` [testosterone], the HaCaT cell proliferation result in the data set on HaCaT cells [1] is “significantly induced”.
For sinulariolide [SC-4], the “Cell Viability (%)” value in the data set with RAW 264.7 cells is 98.8 ± 1.2%. Also, the “accumulation of the proinflammatory iNOS protein” value in the data set with iNOS [2] is listed as “significantly inhibit”. Besides, in the data set with A375 melanoma cells, the “proliferation and migration of A375 melanoma cells” value was “inhibits the proliferation and migration”. Further, the “inhibitory effects on NO expression” value in data set [3] is “no inhibitory effects”. Also, the “NO Inhibition (%)” value in data set [3] (24 h, 20 μM) is recorded as −4.3 ± 1.6%.
For the molecule `C=C1C(=O)O[C@]2(C)CC[C@@H]1C[C@@H]1O[C@@]1(C)CC/C=C(\C)CC[C@H]2OC(C)=O` [Ya-s11, 11-Episinulariolide acetate], the “expression of induced nitric oxide synthase (iNOS)” value with iNOS [4] is given as “inhibits the expression”. The “accumulation of the proinflammatory iNOS protein” value in the data set on iNOS [2] is “significantly inhibit”. Further, the “expression of cyclooxygenase (COX)-2” value in the data set with COX-2 [5] is reported as “inhibits the expression”. Also, the “accumulation of COX-2 protein” value in the data set with COX-2 [6] was “could reduce”.
For orientation: viability means a read-out of living cells in per cent, often relative to untreated cells. For the molecule `C[C@]12CCC(=O)C[C@@H]1CC[C@@H]1[C@@H]2CC[C@]2(C)[C@@H](O)CC[C@@H]12` [DHT, dihydrotestosterone], in the data set on HaCaT cells [7], the viability at 0.1 µg/mL is 97.6%, the viability at 0.5 µg/mL stood at 103%, the viability at 1 µg/mL turned out to be 105% and the viability at 5 µg/mL came to 118%. In addition, the HaCaT cell proliferation result in the data set on HaCaT cells [1] is “significantly induced”.

(Values after PMC7601839, “Anti-Acne Effects of Cembrene Diterpenoids from the Cultured Soft Coral Sinularia flexibilis” (Marine Drugs, 2020).)
